{"source": "patent US20260158025A1", "about": "“COMPOUNDS AND COMBINATIONS THEREOF FOR TREATING NEUROLOGICAL AND PSYCHIATRIC CONDITIONS” (priority 2024, published 2026)", "key": {"[1]": {"assay": "Pharmacokinetics of the subject combination in moderate renal impairment", "from_the_text": "(§1) Data are GMRs and 90% CIs. References used are the matched healthy subjects for renal and hepatic impairment studies, and extensive or ultra-extensive CYP2D6 metabolizers respectively."}, "[2]": {"assay": "Steady state pharmacokinetics after administration of the subject combination", "conditions": "for Cmax relative to the peak level of bupropion: after administration of the subject combination"}, "[3]": {"assay": "Co-administration of the subject combination with paroxetine / strong CYP2D6 inhibitor", "conditions": "subject combination plus strong CYP2D6 inhibitor", "from_the_text": "In some embodiments, the patients are monitored for adverse reactions potentially attributable to dextromethorphan, such as somnolence and dizziness."}, "[4]": {"assay": "Pharmacokinetics of the subject combination in CYP2D6 poor metabolizers", "conditions": "steady state, hydrobromide monohydrate", "from_the_text": "Approximately 7% to 10% of Caucasians and 3% to 8% of African Americans lack the capacity to metabolize CYP2D6 substrates and are classified as poor metabolizers.\nas §1"}, "[5]": {"assay": "Effect of food on pharmacokinetics of the subject combination", "format": "in vivo, human", "conditions": "subject combination administered with food"}, "[6]": {"conditions": "clinical trials; cited from earlier work"}, "[7]": {"conditions": "clinical trials; cited from earlier work", "remark": "listed apart in the source"}}, "note": "“Also recorded” adds a separate entry of the source. Counter-ions that a name gives are not always drawn."}
{"smiles": "CC(NC(C)(C)C)C(=O)c1cccc(Cl)c1.Cl", "note": "(racemic) [bupropion, (±)-1-(3-chlorophenyl)-2-[(1,1-dimethylethyl)amino]-1-propanone hydrochloride]", "values": [{"measurement": "increase in exposure vs matched controls with normal renal function", "setting": "[1]; human, in vivo", "result": "approximately 2 fold"}, {"measurement": "reduction in clearance vs matched controls with normal renal function", "setting": "[1]; human, in vivo", "result": 50, "unit": "%"}]}
{"smiles": "COc1ccc2c(c1)[C@]13CCCC[C@@H]1[C@H](C2)N(C)CC3", "note": "[dextromethorphan, morphinan, 3-methoxy-17-methyl-, (9α, 13α, 14α), hydrobromide monohydrate]", "values": [{"measurement": "increase in mean elimination half-life compared to dextromethorphan given without bupropion", "setting": "[2]; 8 days of the subject combination, extensive metabolizers", "result": "approximately 3 fold"}, {"measurement": "pharmacokinetics at steady state (dose proportionality)", "setting": "[2]; co-administered with bupropion, dextromethorphan 30 to 60 mg, bupropion 75 to 150 mg", "result": "nonlinear pharmacokinetics"}, {"measurement": "plasma concentrations on concomitant use with a strong CYP2D6 inhibitor", "setting": "[3]", "result": "increases plasma concentrations"}, {"measurement": "plasma concentrations in poor metabolizers compared with non-poor metabolizers", "setting": "[4]", "result": "increases plasma concentrations; also recorded: generally higher"}, {"measurement": "change of Cmax with food", "setting": "[5]", "result": "unchanged"}, {"measurement": "reduction in clearance vs matched controls with normal renal function", "setting": "[1]; moderate renal impairment (GFR 30-60 mL/min)", "result": 50, "unit": "%"}, {"measurement": "increase in exposure vs matched controls with normal renal function", "setting": "[1]; moderate renal impairment (GFR 30-60 mL/min), 7 subjects vs 6 controls", "result": "approximately 2 fold"}]}
{"smiles": "CC(NC(C)(C)C)C(O)c1cccc(Cl)c1", "note": "(stereo not drawn) [erythrohydroxybupropion]", "values": [{"measurement": "Cmax relative to the peak level of bupropion", "setting": "[2]", "result": "approximately equal to"}]}
{"smiles": "CN[C@]1(c2ccccc2Cl)CCCCC1=O", "note": "[esketamine, Esketamine]", "values": [{"measurement": "patients who developed dissociative or perceptual changes based on CADSS", "setting": "[6]", "result": "61% to 84"}, {"measurement": "patients who developed sedation based on MOAA/S", "setting": "[7]", "result": "48% to 61"}, {"measurement": "patients who experienced loss of consciousness (MOAA/S score of 0)", "setting": "[7]", "result": "0.3% to 0.4"}]}
{"smiles": "C[C@H]1NC(C)(C)CO[C@]1(O)c1cccc(Cl)c1", "note": "[hydroxybupropion]", "values": [{"measurement": "Cmax relative to the peak level of bupropion", "setting": "[2]", "result": "approximately 14 times"}]}
{"smiles": "C[C@H](NC(C)(C)C)[C@@H](O)c1cccc(Cl)c1", "note": "[threohydroxybupropion]", "values": [{"measurement": "Cmax relative to the peak level of bupropion", "setting": "[2]", "result": "about 5 times"}]}
